Here are results for one compound from patent publication US20140377350A1, “BILAYER TABLET FORMULATIONS OF FLURBIPROFEN AND GLUCOSAMIN” (Sanovel Ilac Sanayi Ve Ticaret Anonim Sirketi, priority 2012, published 2014).

Data set [1] in a line: in-vitro release (dissolution) of the actives from the bilayer tablet, USP paddle method. In kind it is physicochemical. The conditions noted are these: 900 ml phosphate buffer pH 7.2, 37° C., 50 RPM. As to the method:
Therefore, the release profiles of the actives are as follows; the maximum 40% of total amount of flurbiprofen is released in 2 hours and 50-80% in 6 hours and at least 75% in 8 hours in 900 ml of phosphate buffer at pH 7.2 at 37° C. using USP paddle method rotating at 50 RPM. Glucosamine is released immediately and minimum 75% of the total amount is dissolved in 60 min.

For data set [2] the following is noted: cited from earlier work.

The structures appear in SMILES notation.

In the case of `CC(C(=O)O)c1ccc(-c2ccccc2)c(F)c1` (stereo not drawn) [flurbiprofen, Flurbiprofen], the figures for the “total amount of flurbiprofen released” value in data set [1] (in 2 hours) and in data set [1] (in 6 hours) were no more than 40% and 50-80%, respectively. Besides, the solubility in water entry in data set [2] was “practically insoluble”.
